Measurements: patent US20160369258A1, “RESTRICTING NUCLEAR PROTEIN TO SPECIFIC PHASES OF THE CELL CYCLE” (UNIVERSITY OF WASHINGTON, priority 2014, published 2016)
Peptide text beside a SMILES is read from it. * marks the point of attachment. Cbz = O=C(OCc1ccccc1)*

Tests used:
AID-mCherry = assay: HCS microscopy of AID-mCherry subcellular distribution after LMB / MG132 treatment; format: cell-based, human; details: for cytoplasmic AID-mCherry signal, response to treatment / nuclear AID-mCherry signal, increase relative to untreated cells: Ramos AID-mCherry transductants, LMB 50 ng/ml, MG132 50 μM; for nuclear AID-mCherry signal, increase relative to untreated cells: 0-4 hr
Protocol: We analyzed subcellular distribution of AID in the human B cell line, Ramos, transduced with a lentiviral construct expressing human AID fused to the mCherry fluorescent protein at the C-terminus. Ramos B cells express endogenous AID and actively diversify their Ig genes, so the pathways that regulate and respond to damage by AID are intact. Cells were analyzed by high content screening (HCS) microscopy (43), a […] approach that automatically quantifies signals per unit area (pixels) in each compartment of each cell (FIG. 1A). […] The cytoplasmic signal was unaffected by MG132 treatment, but diminished upon treatment with LMB or LMB+MG132, paralleling the increase in nuclear signal.
The human Burkitt lymphoma cell line, Ramos, was cultured in supplemented RPMI 1640 (Gibco), which contained 10% FBS, 2 mM L-glutamine, penicillin/streptomycin, 1× non-essential amino acids (Gibco), 1 mM sodium pyruvate, and 10 mM HEPES. Lentiviral transductions used 2×10^5 cells cultured in medium containing 8 μg/ml of polybrene. Following transduction, cells were cultured for 3-4 days and these recent transductants then sorted for mCherry+ to enrich for transduced cells, typically constituting 0.1-10% of the population. Cells were treated with leptomycin B (LMB; LC Laboratories) at 50 ng/ml and MG132 (Z-Leu-Leu-Leu-aldehyde; Sigma-Aldrich) at 50 μM. Viable cells were counted after trypan blue staining. Cell viability was confirmed by CellTiter-Glo® Luminescent Cell Viability Assay (Promega).
Cells were fixed in 3.7% formaldehyde at a density of 2×10^6 cells/ml and stained with whole cell stain (HCS CellMask, Invitrogen) and DAPI (0.2 μg/ml). Fixed cells were then washed, resuspended in PBS and spun down in a 96-well μclear microplate (Greiner Bio One) for imaging. Cells were imaged by Thermo Scientific ArrayScan VTI HCS reader, analyzing 3000-6000 cells in each treatment group. Cells with very low or very high mCherry signals were eliminated, gating based on the mock transduction control (low) and eliminating cells with signals more than 5 SD from the mean (high). The HCS Colocalization BioApplication protocol was used to determine nuclear and whole cell boundaries in individual cells as defined by DAPI and HCS CellMask, respectively, thereby defining the cytoplasmic region as the region between nuclear and whole cell boundaries. The average signal in the nuclear and cytoplasmic compartments was determined in individual cells by measuring the total intensity of mCherry signal divided by area within each compartment. The ratio of nuclear to cytoplasmic signal (N/C) was calculated as the ratio of the average signals of nuclear and cytoplasmic mCherry.
G1, S, and G2/M phase cells were distinguished by ranking DNA content as determined by total DAPI signal, and specific fractions of the population assigned to G1, S and G2/M phases (FIG. 16A). HCS results were expressed in terms of average signal, to ensure independence of cell size, which increases during cell cycle (FIG. 16).

Ramos B cells = assay: Flow cytometry of cell cycle profile and fluorescent signal; format: cell-based, human; details: up to 4 hr of culture; Ramos AID-mCherry transductants
Protocol: To determine cell cycle distribution, cells were fixed, permeabilized with 0.5% Triton X-100, stained with DAPI (2 μg/ml) and analyzed by FACS.

`CCC(=C/[C@H](C)C/C=C/C(C)=C/[C@@H](C)C(=O)[C@@H](C)[C@H](O)[C@@H](C)C/C(C)=C/C(=O)O)/C=C/[C@@H]1OC(=O)C=C[C@@H]1C` [LMB, leptomycin B] was tested, and the “cytoplasmic AID-mCherry signal, response to treatment” value (AID-mCherry) was “diminished”, the “nuclear AID-mCherry signal, increase relative to untreated cells” value (AID-mCherry) was 1.5 fold and the “drop of cytoplasmic AID-mCherry signal” value (AID-mCherry; all stages of cell cycle (G1, S, G2/M)) was 50%. For the same compound, the “N/C ratio of AID-mCherry signal” value (AID-mCherry; representative cell, 0.5 hr LMB (untreated 0.80)) was 1.34 and the “effect of treatment on cell cycle” value (Ramos B cells) was “not perturbed significantly”.

With `CC(C)C[C@@H](C=O)NC(=O)[C@H](CC(C)C)NC(=O)[C@H](CC(C)C)NC(=O)OCc1ccccc1` [MG132, Z-Leu-Leu-Leu-aldehyde] (Cbz-Leu-Leu-Leu-aldehyde) the “cytoplasmic AID-mCherry signal, response to treatment” value (AID-mCherry) was “unaffected”, the “nuclear AID-mCherry signal, increase relative to untreated cells” value (AID-mCherry) was “unaffected” and the “effect on nuclear or cytoplasmic AID-mCherry signals” value (AID-mCherry; any phase of cell cycle) was “little effect”. The “effect of treatment on cell cycle” value (Ramos B cells) was “not perturbed significantly”.
